Results published in the supplement of paper PMC9663587.

How the values were obtained:
YKL-5-124 = compound: C=CC(=O)Nc1ccc(C(=O)Nc2[nH]nc3c2CN(C(=O)N[C@H](CN(C)C)c2ccccc2)C3(C)C)cc1 [YKL-5-124]; test: increase in dead-cell fraction, 72 h; higher = more death;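 note: breast cancer cell lines in 384-well plates, stained with Hoechst plus LIVE/DEAD far red dye and imaged, cells above an LDR intensity threshold counted dead, Hoechst-negative corpses included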
THZ531 [1] = compound: T1, CN(C)C/C=C/C(=O)Nc1ccc(C(=O)N2CCC[C@@H](Nc3ncc(Cl)c(-c4c[nH]c5ccccc45)n3)C2)cc1 [THZ531]; test: as above
[2] = compound: CCc1cnn2c(NCc3ccc[n+]([O-])c3)cc(N3CCCC[C@H]3CCO)nc12; test: as above
BSJ-03-123 [3] = compound: T2, CC(=O)c1c(C)c2cnc(Nc3ccc(N4CCN(CCOCCOCCOCCNC(=O)COc5cccc6c5C(=O)N(C5CCC(=O)NC5=O)C6=O)CC4)cn3)nc2n(C2CCCC2)c1=O [BSJ-03-123]; test: as above
Neratinib/HKI272 [4] = compound: T3, CCOc1cc2ncc(C#N)c(Nc3ccc(OCc4ccccn4)c(Cl)c3)c2cc1NC(=O)/C=C/CN(C)C [Neratinib/HKI272]; test: as above
THZ1 = compound: CN(C)C/C=C/C(=O)Nc1ccc(C(=O)Nc2cccc(Nc3ncc(Cl)c(-c4c[nH]c5ccccc45)n3)c2)cc1 [THZ1]; test: as above
Vorinostat = compound: O=C(CCCCCCC(=O)Nc1ccccc1)NO [Vorinostat]
Ceritinib/LDK378 = compound: Cc1cc(Nc2ncc(Cl)c(Nc3ccccc3S(=O)(=O)C(C)C)n2)c(OC(C)C)cc1C1CCNCC1 [Ceritinib/LDK378]
Taselisib/GDC0032 = compound: Cc1nc(-c2cn3c(n2)-c2ccc(-c4cnn(C(C)(C)C(N)=O)c4)cc2OCC3)n(C(C)C)n1 [Taselisib/GDC0032]
INK128/MLN0128 = compound: CC(C)n1nc(-c2ccc3oc(N)nc3c2)c2c(N)ncnc21 [INK128/MLN0128]
[5] = compound: CC(=O)c1c(C)c2cnc(Nc3ccc(N4CCNCC4)cn3)nc2n(C2CCCC2)c1=O
THZ531 [6] = compound: T1, THZ531
Dasatinib = compound: Cc1nc(Nc2ncc(C(=O)Nc3c(C)cccc3Cl)s2)cc(N2CCN(CCO)CC2)n1 [Dasatinib]
BSJ-01-175 = compound: CN(C)C/C=C/C(=O)Nc1ccc(O[C@@H]2CCC[C@@H](Nc3ncc(Cl)c(-c4c[nH]c5ccccc45)n3)C2)cc1 [BSJ-01-175]
[7] = compound: CO[C@@H](C)Cn1c(=O)n(C)c2cnc3ccc(-c4cncc(C(C)(C)O)c4)cc3c21
Rucaparib = compound: CNCc1ccc(-c2[nH]c3cc(F)cc4c3c2CCNC4=O)cc1 [Rucaparib]
[8] = compound: CC(=O)Nc1cccc(-n2c(=O)n(C3CC3)c(=O)c3c(Nc4ccc(I)cc4F)n(C)c(=O)c(C)c32)c1
Volasertib/BI6727 = compound: CC[C@@H]1C(=O)N(C)c2cnc(Nc3ccc(C(=O)N[C@H]4CC[C@H](N5CCN(CC6CC6)CC5)CC4)cc3OC)nc2N1C(C)C [Volasertib/BI6727]
Doxorubicin = compound: COc1cccc2c1C(=O)c1c(O)c3c(c(O)c1C2=O)C[C@@](O)(C(=O)CO)C[C@@H]3O[C@H]1C[C@H](N)[C@H](O)[C@H](C)O1 [Doxorubicin]
Neratinib/HKI272 [9] = compound: T3, Neratinib/HKI272
AZD2014 = compound: CNC(=O)c1cccc(-c2ccc3c(N4CCOC[C@@H]4C)nc(N4CCOC[C@@H]4C)nc3n2)c1 [AZD2014]
BSJ-03-123 [10] = compound: T2, BSJ-03-123
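Throughout, for GR50, 72 h: breast cancer and non-malignant breast epithelial cell lines, Deep Dye Drop or Dye Drop imaging, nine half-log doses, GR normalized to time-zero plates and DMSO-only controls.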

## PDX1328
YKL-5-124; 0.001 µM
  increase in dead-cell fraction: 0.0057
YKL-5-124; 0.003162 µM
  increase in dead-cell fraction: 0.0011
YKL-5-124; 0.01 µM
  increase in dead-cell fraction: 0.0128
YKL-5-124; 0.03162 µM
  increase in dead-cell fraction: 0.0082
YKL-5-124; 0.1 µM
  increase in dead-cell fraction: 0.0045
YKL-5-124; 0.3162 µM
  increase in dead-cell fraction: 0.0085
YKL-5-124; 1 µM
  increase in dead-cell fraction: 0.0121
YKL-5-124; 3.162 µM
  increase in dead-cell fraction: 0.0229
YKL-5-124; 10 µM
  increase in dead-cell fraction: 0.0663
THZ531 [1]; 0.0001 µM
  increase in dead-cell fraction: -0.0004
THZ531 [1]; 0.0003162 µM
  increase in dead-cell fraction: -0.0097
THZ531 [1]; 0.001 µM
  increase in dead-cell fraction: 0.0015
THZ531 [1]; 0.003162 µM
  increase in dead-cell fraction: 0
THZ531 [1]; 0.01 µM
  increase in dead-cell fraction: 0.003
THZ531 [1]; 0.03162 µM
  increase in dead-cell fraction: -0.0033
THZ531 [1]; 0.1 µM
  increase in dead-cell fraction: 0.0477
THZ531 [1]; 0.3162 µM
  increase in dead-cell fraction: 0.199
THZ531 [1]; 1 µM
  increase in dead-cell fraction: 0.186
[2]; 0.0001 µM
  increase in dead-cell fraction: -0.0005
[2]; 0.0003162 µM
  increase in dead-cell fraction: 0.0028
[2]; 0.001 µM
  increase in dead-cell fraction: -0.0033
[2]; 0.003162 µM
  increase in dead-cell fraction: -0.0053
[2]; 0.01 µM
  increase in dead-cell fraction: -0.0021
[2]; 0.03162 µM
  increase in dead-cell fraction: 0.113
[2]; 0.1 µM
  increase in dead-cell fraction: 0.187
[2]; 0.3162 µM
  increase in dead-cell fraction: 0.19
[2]; 1 µM
  increase in dead-cell fraction: 0.213
BSJ-03-123 [3]; 0.001 µM
  increase in dead-cell fraction: -0.0042
BSJ-03-123 [3]; 0.003162 µM
  increase in dead-cell fraction: -0.0045
BSJ-03-123 [3]; 0.01 µM
  increase in dead-cell fraction: -0.0076
BSJ-03-123 [3]; 0.03162 µM
  increase in dead-cell fraction: -0.0013
BSJ-03-123 [3]; 0.1 µM
  increase in dead-cell fraction: -0.006
BSJ-03-123 [3]; 0.3162 µM
  increase in dead-cell fraction: -0.0065
BSJ-03-123 [3]; 1 µM
  increase in dead-cell fraction: -0.0104
BSJ-03-123 [3]; 3.162 µM
  increase in dead-cell fraction: -0.0015
BSJ-03-123 [3]; 10 µM
  increase in dead-cell fraction: 0.0283
Neratinib/HKI272 [4]; 0.0003162 µM
  increase in dead-cell fraction: 0.0026
Neratinib/HKI272 [4]; 0.001 µM
  increase in dead-cell fraction: 0.0005
Neratinib/HKI272 [4]; 0.003162 µM
  increase in dead-cell fraction: 0.002
Neratinib/HKI272 [4]; 0.01 µM
  increase in dead-cell fraction: -0.0007
Neratinib/HKI272 [4]; 0.03162 µM
  increase in dead-cell fraction: 0.0044
Neratinib/HKI272 [4]; 0.1 µM
  increase in dead-cell fraction: 0.0093
Neratinib/HKI272 [4]; 0.3162 µM
  increase in dead-cell fraction: 0.0044
Neratinib/HKI272 [4]; 1 µM
  increase in dead-cell fraction: 0.0158
Neratinib/HKI272 [4]; 3.162 µM
  increase in dead-cell fraction: 0.0733
THZ1; 0.0001 µM
  increase in dead-cell fraction: -0.0047
THZ1; 0.0003162 µM
  increase in dead-cell fraction: -0.0031
THZ1; 0.001 µM
  increase in dead-cell fraction: -0.0014
THZ1; 0.003162 µM
  increase in dead-cell fraction: -0.0053
THZ1; 0.01 µM
  increase in dead-cell fraction: 0.0031
THZ1; 0.03162 µM
  increase in dead-cell fraction: 0.0436
THZ1; 0.1 µM
  increase in dead-cell fraction: 0.123
THZ1; 0.3162 µM
  increase in dead-cell fraction: 0.225
THZ1; 1 µM
  increase in dead-cell fraction: 0.432
Vorinostat
  GR50, 72 h: 0.687 µM
Ceritinib/LDK378
  GR50, 72 h: 0.629 µM
Taselisib/GDC0032
  GR50, 72 h: 0.0544 µM
INK128/MLN0128
  GR50, 72 h: 0.00569 µM
[5]
  GR50, 72 h: 0.168 µM
THZ531 [6]
  GR50, 72 h: 0.0399 µM
Dasatinib
  GR50, 72 h: 0.0279 µM
BSJ-01-175
  GR50, 72 h: 0.00722 µM
[7]
  GR50, 72 h: 0.00195 µM
Rucaparib
  GR50, 72 h: > 10 µM
[8]
  GR50, 72 h: > 1 µM
Volasertib/BI6727
  GR50, 72 h: 0.00437 µM
Doxorubicin
  GR50, 72 h: 0.024 µM
Neratinib/HKI272 [9]
  GR50, 72 h: 0.264 µM

## MCF10A (GM)
YKL-5-124; 0.001 µM
  increase in dead-cell fraction: 0.22
YKL-5-124; 0.003162 µM
  increase in dead-cell fraction: 0.329
YKL-5-124; 0.01 µM
  increase in dead-cell fraction: 0.363
YKL-5-124; 0.03162 µM
  increase in dead-cell fraction: 0.249
YKL-5-124; 0.1 µM
  increase in dead-cell fraction: 0.226
YKL-5-124; 0.3162 µM
  increase in dead-cell fraction: 0.293
YKL-5-124; 1 µM
  increase in dead-cell fraction: 0.263
YKL-5-124; 3.162 µM
  increase in dead-cell fraction: 0.218
YKL-5-124; 10 µM
  increase in dead-cell fraction: 0.391
THZ531 [1]; 0.0001 µM
  increase in dead-cell fraction: 0.0026
THZ531 [1]; 0.0003162 µM
  increase in dead-cell fraction: 0.0015
THZ531 [1]; 0.001 µM
  increase in dead-cell fraction: -0.0008
THZ531 [1]; 0.003162 µM
  increase in dead-cell fraction: -0.0019
THZ531 [1]; 0.01 µM
  increase in dead-cell fraction: 0.0006
THZ531 [1]; 0.03162 µM
  increase in dead-cell fraction: 0.0017
THZ531 [1]; 0.1 µM
  increase in dead-cell fraction: 0.0028
THZ531 [1]; 0.3162 µM
  increase in dead-cell fraction: 0.0137
THZ531 [1]; 1 µM
  increase in dead-cell fraction: 0.62
BSJ-03-123 [3]; 0.001 µM
  increase in dead-cell fraction: 0.0019
BSJ-03-123 [3]; 0.003162 µM
  increase in dead-cell fraction: -0.0004
BSJ-03-123 [3]; 0.01 µM
  increase in dead-cell fraction: 0.0026
BSJ-03-123 [3]; 0.03162 µM
  increase in dead-cell fraction: 0.0037
BSJ-03-123 [3]; 0.1 µM
  increase in dead-cell fraction: 0.0042
BSJ-03-123 [3]; 0.3162 µM
  increase in dead-cell fraction: 0.0033
BSJ-03-123 [3]; 1 µM
  increase in dead-cell fraction: 0.0209
BSJ-03-123 [3]; 3.162 µM
  increase in dead-cell fraction: 0.0255
BSJ-03-123 [3]; 10 µM
  increase in dead-cell fraction: 0.455
THZ1; 0.0001 µM
  increase in dead-cell fraction: -0.0002
THZ1; 0.0003162 µM
  increase in dead-cell fraction: -0.0005
THZ1; 0.001 µM
  increase in dead-cell fraction: -0.0015
THZ1; 0.003162 µM
  increase in dead-cell fraction: 0.0003
THZ1; 0.01 µM
  increase in dead-cell fraction: 0.0067
THZ1; 0.03162 µM
  increase in dead-cell fraction: 0.127
THZ1; 0.1 µM
  increase in dead-cell fraction: 0.225
THZ1; 0.3162 µM
  increase in dead-cell fraction: 0.256
THZ1; 1 µM
  increase in dead-cell fraction: 0.61
AZD2014
  GR50, 72 h: 0.034 µM
THZ531 [6]
  GR50, 72 h: 0.428 µM
BSJ-01-175
  GR50, 72 h: 1.17 µM
[7]
  GR50, 72 h: 0.00578 µM
Rucaparib
  GR50, 72 h: > 10 µM
BSJ-03-123 [10]
  GR50, 72 h: 2.21 µM
